In patent publication US8048862B2, “Macrocyclic inhibitors of hepatitis C virus replication” (priority 2008, dated 2011):
Where two headings read alike, the source gives them in different places.

How the values were obtained:
[1] = target: NS3/NS4 complexes (Hepatitis C virus genotype 1a, UniProt P27958); experiment: NS3/NS4 inhibition activity (IC50); type: biochemical
In short: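 NS3/NS4 complexes were formed and compound inhibitory concentrations determined at ambient temperature (23 °C). The buffer contained 50 mM Tris-HCl pH 7.5, 15% glycerol, 0.6 mM LDAO, 25 μM NS4A peptide and 10 mM DTT.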

[2] = system: hepatitis C replicon; experiment: hepatitis C replicon EC50; type: cell-based; details: Hepatitis C virus, hepatitis C replicon, read-out: EC50
Description: NS3-NS4 inhibition activity can be determined using known assay methods.

Chain of NS3/NS4 complexes (P27958 1027-1657): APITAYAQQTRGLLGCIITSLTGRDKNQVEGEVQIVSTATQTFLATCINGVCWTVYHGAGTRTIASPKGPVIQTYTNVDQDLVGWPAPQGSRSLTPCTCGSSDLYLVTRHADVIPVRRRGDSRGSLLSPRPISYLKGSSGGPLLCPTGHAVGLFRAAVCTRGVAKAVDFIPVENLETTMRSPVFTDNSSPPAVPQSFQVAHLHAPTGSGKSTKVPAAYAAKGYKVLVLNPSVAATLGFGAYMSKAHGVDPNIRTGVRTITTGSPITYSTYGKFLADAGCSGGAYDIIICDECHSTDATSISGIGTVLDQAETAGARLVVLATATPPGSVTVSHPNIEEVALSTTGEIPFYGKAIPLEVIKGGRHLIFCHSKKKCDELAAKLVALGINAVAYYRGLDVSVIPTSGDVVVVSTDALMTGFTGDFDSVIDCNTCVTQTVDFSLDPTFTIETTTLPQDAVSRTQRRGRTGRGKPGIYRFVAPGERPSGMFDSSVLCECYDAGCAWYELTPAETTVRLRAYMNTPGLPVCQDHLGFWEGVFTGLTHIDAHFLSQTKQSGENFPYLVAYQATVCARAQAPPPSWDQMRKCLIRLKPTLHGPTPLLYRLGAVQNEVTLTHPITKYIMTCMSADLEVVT
Chain of NS3/NS4 complexes (P27958 1658-1711): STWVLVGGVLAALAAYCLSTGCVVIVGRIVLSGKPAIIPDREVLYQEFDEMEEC

Structure (SMILES)	IC50 ([1]; Table 2, read-out: IC50) [nM]	EC50 ([2]; Table 2) [nM]	IC50 ([1]; IC50, Table 3) [nM]	EC50 ([2]; Table 3) [nM]	IC50 ([1]; Table 3, read-out: IC50) [nM]
COc1ccc2c(O[C@@H]3C[C@H]4C(=O)N[C@]5(C(=O)O)C[C@H]5/C=C\CCCCC[C@H](Nc5ccccc5)C(=O)N4C3)cc(-c3nc(C(C)C)cs3)nc2c1C [Compound 449]	< 10	10 to 75			
COc1ccc2c(O[C@@H]3C[C@H]4C(=O)N[C@]5(C(=O)NS(=O)(=O)N6CCCC6)C[C@H]5/C=C\CCCCC[C@H](Nc5ccccc5)C(=O)N4C3)cc(-c3nc(C(C)C)cs3)nc2c1C [Compound 455]	< 10	< 10			
COc1ccc2c(O[C@@H]3C[C@H]4C(=O)N[C@]5(C(=O)NS(=O)(=O)N6CCCCC6)C[C@H]5/C=C\CCCCC[C@H](Nc5ccccc5)C(=O)N4C3)cc(-c3nc(C(C)C)cs3)nc2c1C [Compound 456]	< 10	10 to 75			
COc1ccc2c(O[C@@H]3C[C@H]4C(=O)N[C@]5(C(=O)NS(=O)(=O)N(C)C)C[C@H]5/C=C\CCCCC[C@H](Nc5cccc(C(F)(F)F)c5)C(=O)N4C3)cc(-c3nc(C(C)C)cs3)nc2c1C [Compound 457]	< 10	< 10			
COc1ccc2c(O[C@@H]3C[C@H]4C(=O)N[C@]5(C(=O)NS(=O)(=O)N(C)C)C[C@H]5/C=C\CCCCC[C@H](Nc5ccc(C(F)(F)F)cc5)C(=O)N4C3)cc(-c3nc(C(C)C)cs3)nc2c1C [Compound 458]	< 10	10 to 75			
COc1ccc2c(O[C@@H]3C[C@H]4C(=O)N[C@]5(C(=O)NS(=O)(=O)N(C)C)C[C@H]5/C=C\CCCCC[C@H](Nc5ccc(F)c(C(F)(F)F)c5)C(=O)N4C3)cc(-c3nc(C(C)C)cs3)nc2c1C [Compound 459]	< 10	< 10			
COc1ccc2c(O[C@@H]3C[C@H]4C(=O)N[C@]5(C(=O)NS(=O)(=O)N(C)C)C[C@H]5/C=C\CCCCC[C@H](Nc5cc(F)cc(C(F)(F)F)c5)C(=O)N4C3)cc(-c3nc(C(C)C)cs3)nc2c1C [Compound 460]	< 10	< 10			
CC(C)n1c(O[C@@H]2C[C@H]3C(=O)N[C@]4(C(=O)NS(=O)(=O)C5(C)CC5)C[C@H]4/C=C\CCCCC[C@H](Nc4ccccc4)C(=O)N3C2)nc2ccc(F)cc21 [Compound 461]	< 10	10 to 75			
Cc1ccc2nc(O[C@@H]3C[C@H]4C(=O)N[C@]5(C(=O)NS(=O)(=O)C6(C)CC6)C[C@H]5/C=C\CCCCC[C@H](Nc5ccccc5)C(=O)N4C3)n(C(C)C)c2c1 [Compound 462]	< 10	10 to 75			
CC(C)n1c(O[C@@H]2C[C@H]3C(=O)N[C@]4(C(=O)NS(=O)(=O)C5(C)CC5)C[C@H]4CCCCCCC[C@H](Nc4cc(F)cc(C(F)(F)F)c4)C(=O)N3C2)nc2ccccc21 [Compound 465]	< 10	75 to 500			
CCn1c(O[C@@H]2C[C@H]3C(=O)N[C@]4(C(=O)NS(=O)(=O)C5(C)CC5)C[C@H]4CCCCCCC[C@H](Nc4cc(F)cc(C(F)(F)F)c4)C(=O)N3C2)nc2ccccc21 [Compound 466]	< 10	75 to 500			
CC(C)n1c(O[C@@H]2C[C@H]3C(=O)N[C@]4(C(=O)NS(=O)(=O)C5(C)CC5)C[C@H]4/C=C\CCCCC[C@H](Nc4ccccc4)C(=O)N3C2)nc2cccc(F)c21 [Compound 467]	< 10	10 to 75			
CC(C)n1c(O[C@@H]2C[C@H]3C(=O)N[C@]4(C(=O)NS(=O)(=O)C5(C)CC5)C[C@H]4/C=C\CCCCC[C@H](Nc4ccccc4)C(=O)N3C2)nc2cc(F)ccc21 [Compound 468]	< 10	< 10			
CC(C)n1c(O[C@@H]2C[C@H]3C(=O)N[C@]4(C(=O)NS(=O)(=O)C5(C)CC5)C[C@H]4/C=C\CCCCC[C@H](Nc4ccccc4)C(=O)N3C2)nc2c(F)cccc21 [Compound 469]	< 10	< 10			
Cc1ccc2c(c1)nc(O[C@@H]1C[C@H]3C(=O)N[C@]4(C(=O)NS(=O)(=O)C5(C)CC5)C[C@H]4/C=C\CCCCC[C@H](Nc4ccccc4)C(=O)N3C1)n2C(C)C [Compound 470]	< 10	10 to 75			
Cc1cccc2c1nc(O[C@@H]1C[C@H]3C(=O)N[C@]4(C(=O)NS(=O)(=O)C5(C)CC5)C[C@H]4/C=C\CCCCC[C@H](Nc4ccccc4)C(=O)N3C1)n2C(C)C [Compound 471]	< 10	10 to 75			
COc1ccc2c(O[C@@H]3C[C@H]4C(=O)N[C@]5(C(=O)NS(=O)(=O)C6(C)CC6)C[C@H]5/C=C\CCCCC[C@H](Nc5ccccc5C)C(=O)N4C3)cc(-c3nc(C(C)C)cs3)nc2c1C [Compound 472]	< 10	10 to 75			

Structure (SMILES)	IC50 ([1]; Table 2, read-out: IC50) [nM]	EC50 ([2]; Table 2) [nM]	IC50 ([1]; IC50, Table 3) [nM]	EC50 ([2]; Table 3) [nM]	IC50 ([1]; Table 3, read-out: IC50) [nM]
COc1ccc2c(O[C@@H]3C[C@H]4C(=O)N[C@]5(C(=O)NS(=O)(=O)C6(C)CC6)C[C@H]5/C=C\CCCCC[C@H](Nc5ccc(F)c(F)c5)C(=O)N4C3)cc(-c3nc(C(C)C)cs3)nc2c1C [Compound 473]	< 10	< 10			
CNC(=O)c1cccc(N[C@H]2CCCCC/C=C\[C@@H]3C[C@@]3(C(=O)NS(=O)(=O)C3(C)CC3)NC(=O)[C@@H]3C[C@@H](Oc4cc(-c5nc(C(C)C)cs5)nc5c(C)c(OC)ccc45)CN3C2=O)c1 [Compound 474]	< 10	< 10			
COc1ccc2c(O[C@@H]3C[C@H]4C(=O)N[C@]5(C(=O)NS(=O)(=O)C6(C)CC6)C[C@H]5/C=C\CCCCC[C@H](Nc5cccc(NC(C)=O)c5)C(=O)N4C3)cc(-c3nc(C(C)C)cs3)nc2c1C [Compound 475]	< 10	< 10			
COc1ccc2c(O[C@@H]3C[C@H]4C(=O)N[C@]5(C(=O)NS(=O)(=O)C6(C)CC6)C[C@H]5/C=C\CCCCC[C@H](Nc5cccc(C#N)c5)C(=O)N4C3)cc(-c3nc(C(C)C)cs3)nc2c1C [Compound 476]	< 10	< 10			
COc1ccc2c(O[C@@H]3C[C@H]4C(=O)N[C@]5(C(=O)NS(=O)(=O)C6(C)CC6)C[C@H]5/C=C\CCCCC[C@H](Nc5cccc(C)c5)C(=O)N4C3)cc(-c3nc(C(C)C)cs3)nc2c1C [Compound 477]	< 10	< 10			
COc1cccc(N[C@H]2CCCCC/C=C\[C@@H]3C[C@@]3(C(=O)NS(=O)(=O)C3(C)CC3)NC(=O)[C@@H]3C[C@@H](Oc4cc(-c5nc(C(C)C)cs5)nc5c(C)c(OC)ccc45)CN3C2=O)c1 [Compound 478]	< 10	75 to 500			
COc1ccc2c(O[C@@H]3C[C@H]4C(=O)N[C@]5(C(=O)NS(=O)(=O)C6(C)CC6)C[C@H]5/C=C\CCCCC[C@H](Nc5cccc(C(=O)N(C)C)c5)C(=O)N4C3)cc(-c3nc(C(C)C)cs3)nc2c1C [Compound 479]	< 10	< 10			
COc1ccc2c(O[C@@H]3C[C@H]4C(=O)N[C@]5(C(=O)NS(=O)(=O)C6(C)CC6)C[C@H]5/C=C\CCCCC[C@H](Nc5cc(F)c(F)c(F)c5)C(=O)N4C3)cc(-c3nc(C(C)C)cs3)nc2c1C [Compound 480]	< 10	10 to 75			
COc1ccc2c(O[C@@H]3C[C@H]4C(=O)N[C@]5(C(=O)NS(=O)(=O)C6(C)CC6)C[C@H]5/C=C\CCCCC[C@H](Nc5ccc(C#N)cc5)C(=O)N4C3)cc(-c3nc(C(C)C)cs3)nc2c1C [Compound 481]	< 10	< 10			
COc1ccc2c(O[C@@H]3C[C@H]4C(=O)N[C@]5(C(=O)NS(=O)(=O)C6(C)CC6)C[C@H]5/C=C\CCCCC[C@H](Nc5cc(C)cc(F)c5)C(=O)N4C3)cc(-c3nc(C(C)C)cs3)nc2c1C [Compound 482]	< 10	< 10			
CC1(S(=O)(=O)NC(=O)[C@@]23C[C@H]2/C=C\CCCCC[C@H](Nc2ccccc2)C(=O)N2C[C@H](Oc4nc5ccccc5nc4-c4cccs4)C[C@H]2C(=O)N3)CC1 [Compound 486]	< 10	10 to 75			
COc1ccc2c(O[C@@H]3C[C@H]4C(=O)N[C@]5(C(=O)NS(=O)(=O)C6(C)CC6)C[C@H]5/C=C\CCCCC[C@H](Nc5ccccc5F)C(=O)N4C3)cc(-c3nc(C(C)C)cs3)nc2c1C [Compound 492]	< 10	10 to 75			
CC(C)(C)OC(=O)N[C@H]1CCCCC/C=C\[C@@H]2C[C@@]2(C(=O)NS(=O)(=O)C2(C)CC2)NC(=O)[C@@H]2C[C@@H](Oc3nc4ccccc4n3COCC[Si](C)(C)C)CN2C1=O [Compound 701]			< 10	10 to 100	
CC(C)(C)OC(=O)N[C@H]1CCCCC/C=C\[C@@H]2C[C@@]2(C(=O)O)NC(=O)[C@@H]2C[C@@H](Oc3nc4ccccc4s3)CN2C1=O [Compound 1001]				> 100	10 to 100
CCn1c(O[C@@H]2C[C@H]3C(=O)N[C@]4(C(=O)NS(=O)(=O)C5CC5)C[C@H]4/C=C\CCCCC[C@H](NC(=O)OC(C)(C)C)C(=O)N3C2)nc2ccccc21 [Compound 1007]				< 10	< 10
CC(C)(C)OC(=O)N[C@H]1CCCCC/C=C\[C@@H]2C[C@@]2(C(=O)NS(=O)(=O)C2(C)CC2)NC(=O)[C@@H]2C[C@@H](Oc3nc4ccccc4s3)CN2C1=O [Compound 1008]				< 10	< 10
CC(C)(C)OC(=O)N[C@H]1CCCCC/C=C\[C@@H]2C[C@@]2(C(=O)NS(=O)(=O)C2CC2)NC(=O)[C@@H]2C[C@@H](Oc3nc4ccccc4s3)CN2C1=O [Compound 1009]				< 10	< 10
